Counter-ions that a name gives are not always drawn.
Legend:
[1] = tested on: placental barrier of the in vitro placenta device (coculture of Bewo trophoblasts and HUVEC); assay: Maternal-placental size exclusion permeability assay in the in vitro placenta device; assay type: in vitro ADME, human; conditions: injected into maternal vascular channel at 0.1 μL/min for 1 hour; PI = ratio of sum ROIs trophoblast to maternal vascular channel; FIG. 9B
Method: Again, devices can be placed in the incubator.
In another example, one embodiment of the present invention was used to evaluate maternal-placental size exclusion, where a fluorescein sodium salt (FSS) solution was injected into the maternal vascular channel at 0.1 μL/min for 1 hour. […] PI was expected to decrease as a function of compound molecular weight.

[2] = tested on: trophoblast channel cells; assay: Cytotoxicity by adenylate kinase release (luminescence), samples from trophoblast channel; assay type: cell-based; conditions: luminescence plate reader, FIG. 11
Method: Following exposure, FSS was injected into the maternal channel and permeability assayed. Permeability in the devices was 10-fold higher in trypan blue treated devices compared to controls. An additional assay was performed to determine cytotoxicity as it relates to the release of adenylate kinase. A positive control (100% death by lysis buffer) and a negative control (media only) were included for comparison. Samples were taken from the trophoblast channel and placed in a low volume, white walled […] plate for luminescence analysis using a plate reader. […] The increase in AK release in arbitrary luminescence units compares the toxic exposure of trypan blue to positive and negative controls.

[3] = tested on: intervillous space-trophoblast barrier; assay: Morphological effects of toxic exposure in the in vitro placenta device; assay type: cell-based; conditions: injected into maternal channel at 3 μL/min for 4 min, then incubated at 37° C. for 15 min; FIG. 10
Excerpt: In some embodiments, the in vitro placental model device can be used for studying toxicity of test agents to the placenta. Certain compounds not only induce fetal toxicity upon crossing the placental barrier, but also disrupt the barrier itself. The microfluidic placental barrier model can be used to study response to toxic exposure of test agents. The impact to barrier function can be assessed through permeability comparisons and toxicity (e.g., cytotoxicity, etc.) can be assessed off chip by various methods (e.g., cell lysate luminescence assay, genomic analysis, etc.).
For example, an in vitro placenta device was exposed to trypan blue by injection into the maternal channel at 3 μL/min for 4 min and then incubated at 37° C. for 15 min, similar to protocols in literature^7.8. […] White arrows show barrier degradation, and dark arrows show apoptosis following trypan blue exposure.

Q: Which “increase in average PI compared to 4 kD TRITC-dextran” value [1] does the source give for O=C1OC2(c3ccc(O)cc3Oc3cc(O)ccc32)c2ccccc21 [FSS, fluorescein sodium salt] here?
A: ~2 fold

Q: Cc1cc(-c2ccc(/N=N/c3c(S(=O)(=O)O)cc4cc(S(=O)(=O)O)cc(N)c4c3O)c(C)c2)ccc1/N=N/c1c(S(=O)(=O)O)cc2cc(S(=O)(=O)O)cc(N)c2c1O [trypan blue] was tested. Which “increase in adenylate kinase release” value [2] did it give?
A: 1.5 fold

Q: What about the “morphological effects of exposure at the intervillous space-trophoblast barrier” value [3] of the same compound?
A: evidence of barrier degradation (e.g., cell death and detachment) and apoptosis

Reference: patent US20240161653A1, “IN VITRO MODEL DEVICE FOR PLACENTAL BARRIER” (CFD Research Corporation, priority 2022, published 2024)
